Experimental data: PMC8498107 (Frontiers in Molecular Neuroscience, 2021)

What was measured:
[1] = test system: heteromeric αβ channels versus homomeric α subunit GlyRs; parameters: method as in Pribilla et al., 1992; conditions: heteromeric αβ channels almost unaffected; ref Pribilla et al., 1992; cited from earlier work
GlyR α1 homomers = target: T1, GlyR α1 homomers (Homo sapiens, UniProt P23415); assay: picrotoxinin block of the glycine-gated response, whole-cell patch-clamp in HEK-293 cells; assay type: cell-based; conditions: 100 μM glycine + 100 μM picrotoxinin compared to 100 μM glycine alone
T1 construct: expressed in transfected cells; host or cells: HEK-293
T1 sequence (P23415 29-457): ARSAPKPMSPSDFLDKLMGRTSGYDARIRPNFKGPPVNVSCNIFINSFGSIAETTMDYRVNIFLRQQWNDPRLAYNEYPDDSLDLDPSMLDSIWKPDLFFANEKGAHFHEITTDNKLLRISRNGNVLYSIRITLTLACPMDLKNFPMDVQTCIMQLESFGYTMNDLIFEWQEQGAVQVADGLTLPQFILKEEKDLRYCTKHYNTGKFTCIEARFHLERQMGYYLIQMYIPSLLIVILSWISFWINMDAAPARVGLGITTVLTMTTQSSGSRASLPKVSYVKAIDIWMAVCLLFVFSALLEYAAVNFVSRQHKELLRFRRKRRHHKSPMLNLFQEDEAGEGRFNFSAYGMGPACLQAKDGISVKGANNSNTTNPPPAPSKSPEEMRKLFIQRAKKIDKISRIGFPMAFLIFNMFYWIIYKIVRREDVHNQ
Experimental: HEK-293 cells were transiently transfected using a modified calcium-phosphate precipitation method. Transfection was performed at a confluency of 50–75%, 24 h after seeding of 200,000 cells on glass cover slips in 35 mm culture dishes or 1.5 × 10^6 cells per 10 cm dish. For 35 mm and 10 cm culture dishes GlyR α1, GlyR β or GlyR β variants and eGFP-gephyrin were transfected in a ratio of cDNAs 1:10:5, e.g., 0.2 μg α1, 2 μg β, and 1 μg of eGFP-gephyrin for 35 mm dishes. To label cellular compartments, low copy number vectors were used to exclude effects from overexpression [1 μg; dsRed MEM = fusion of sequence from neuromodulin (GAP-43) and dsRed to label the plasma membrane or dsRed ER = fusion construct of dsRed and calreticulin sequence to label the ER]. The DNA was supplied with 2.5 M CaCl2, 0.1x TE buffer and 2x HBS buffer (50 mM HEPES, 12 mM glucose, 10 mM KCl, 280 mM NaCl, 1.5 mM Na2HPO4) mixed and incubated for 20 min at room temperature. […]
(§1) Electrophysiological characterization was performed on transfected HEK-293 cells using the patch-clamp method for whole cell recordings. […] Current responses were amplified with an EPC-9 amplifier (HEKA Elektronik GmbH, Lambrecht/Pfalz, Germany) and measured at a holding potential of −60 mV using PatchMaster Next software (HEKA Elektronik GmbH, Lambrecht/Pfalz, Germany).

α1β^x channels = assay: as above; assay type: cell-based, human; conditions: 100 μM glycine + 100 μM picrotoxinin compared to 100 μM glycine alone
Experimental: (§2) Full-length cDNAs encoding the human wild-type (WT) or mutated GlyR β variants (β^x) (with x = Y252S, S321F, and A455P) were cloned into the eukaryotic expression vector pRK5 (gift from †P. Seeburg, Heidelberg) and mutagenesis was performed as previously described ([James et al., 2013]). GlyR β variants were further subcloned into pRK5 harboring a myc-epitope at the N-terminus 5′ of residues ^1KEKS^4 representing the first amino acids of the mature GlyR β sequence. eGFP-gephyrin constructs were previously described ([Harvey et al., 2004]). All expression constructs were fully sequenced to verify successful mutagenesis.
HEK-293 cells were transiently transfected using a modified calcium-phosphate precipitation method. Transfection was performed at a confluency of 50–75%, 24 h after seeding of 200,000 cells on glass cover slips in 35 mm culture dishes or 1.5 × 10^6 cells per 10 cm dish. […]
as §1

GlyR α1β^A455P = target: T2, GlyR α1β^A455P (Homo sapiens, UniProt P23415+P48167, A477P); assay type: cell-based
T2 construct: Full-length cDNAs encoding the human wild-type (WT) or mutated GlyR β variants; expressed in transfected cells; host or cells: HEK-293
Experimental: as §2
(§3) HEK-293 cells were transiently transfected using a modified calcium-phosphate precipitation method. Transfection was performed at a confluency of 50–75%, 24 h after seeding of 200,000 cells on glass cover slips in 35 mm culture dishes or 1.5 × 10^6 cells per 10 cm dish. For 35 mm and 10 cm culture dishes GlyR α1, GlyR β or GlyR β variants and eGFP-gephyrin were transfected in a ratio of cDNAs 1:10:5, e.g., 0.2 μg α1, 2 μg β, and 1 μg of eGFP-gephyrin for 35 mm dishes. To label cellular compartments, low copy number vectors were used to exclude effects from overexpression [1 μg; dsRed MEM = fusion of sequence from neuromodulin (GAP-43) and dsRed to label the plasma membrane or dsRed ER = fusion construct of dsRed and calreticulin sequence to label the ER]. The DNA was supplied with 2.5 M CaCl2, 0.1x TE buffer and 2x HBS buffer (50 mM HEPES, 12 mM glucose, 10 mM KCl, 280 mM NaCl, 1.5 mM Na2HPO4) mixed and incubated for 20 min at room temperature. The medium was exchanged after 4–6 h and cells were used for experiments 24–48 h after transfection.
as §1, with “recordings. Experiments were performed at room temperature.” for “recordings.”

[2] = target: T3, GlyR α1β^A455P + eGFP-gephyrin (Homo sapiens, UniProt P23415+P48167, A477P); assay type: cell-based
T3 construct: Full-length cDNAs encoding the human wild-type (WT) or mutated GlyR β variants; expressed in transfected cells; host or cells: HEK-293
Experimental: as §2, §3
as §1, with “recordings. Experiments were performed at room temperature.” for “recordings.”

[3] = target: T4, GlyR α1β (wild-type) + eGFP-gephyrin (Homo sapiens, UniProt P23415+P48167); assay type: cell-based
T4 construct: Full-length cDNAs encoding the human wild-type (WT) or mutated GlyR β variants; expressed in transfected cells; host or cells: HEK-293
Experimental: as §2, §3
as §1, with “recordings. Experiments were performed at room temperature.” for “recordings.”

GlyR α1β^Y252S = target: T5, GlyR α1β^Y252S (Homo sapiens, UniProt P23415+P48167, Y274S); assay type: cell-based
T5 construct: Full-length cDNAs encoding the human wild-type (WT) or mutated GlyR β variants; expressed in transfected cells; host or cells: HEK-293
Experimental: as §2, §3
as §1, with “recordings. Experiments were performed at room temperature.” for “recordings.”

GlyR α1β (wild-type) = target: T6, GlyR α1β (wild-type) (Homo sapiens, UniProt P23415+P48167); assay type: cell-based
T6 construct: Full-length cDNAs encoding the human wild-type (WT) or mutated GlyR β variants; expressed in transfected cells; host or cells: HEK-293
Experimental: as §2, §3
as §1, with “recordings. Experiments were performed at room temperature.” for “recordings.”

GlyR α1β^S321F = target: T7, GlyR α1β^S321F (Homo sapiens, UniProt P23415+P48167, S343F); assay type: cell-based
T7 construct: Full-length cDNAs encoding the human wild-type (WT) or mutated GlyR β variants; expressed in transfected cells; host or cells: HEK-293
Experimental: as §2, §3
as §1, with “recordings. Experiments were performed at room temperature.” for “recordings.”

[4] = target: T8, GlyR α1β^Y252S + eGFP-gephyrin (Homo sapiens, UniProt P23415+P48167, Y274S); assay type: cell-based
T8 construct: Full-length cDNAs encoding the human wild-type (WT) or mutated GlyR β variants; expressed in transfected cells; host or cells: HEK-293
Experimental: as §2, §3
as §1, with “recordings. Experiments were performed at room temperature.” for “recordings.”

[5] = target: T9, GlyR α1β^S321F + eGFP-gephyrin (Homo sapiens, UniProt P23415+P48167, S343F); assay type: cell-based
T9 construct: Full-length cDNAs encoding the human wild-type (WT) or mutated GlyR β variants; expressed in transfected cells; host or cells: HEK-293
Experimental: as §2, §3
as §1, with “recordings. Experiments were performed at room temperature.” for “recordings.”

hyperekplexia phenotype = test system: hyperekplexia phenotype; parameters: method as in Bode and Lynch, 2014; conditions: clinical, gain-of-function and loss-of-function mutations; ref Bode and Lynch, 2014; cited from earlier work
[6] = residual current, 100 μM picrotoxinin + 100 μM glycine versus 100 μM glycine alone
[7] = in the presence of eGFP-gephyrin, remaining current, 100 μM glycine + 100 μM picrotoxinin versus 100 μM glycine alone

T4 sequence (P48167 23-497, one chain of several): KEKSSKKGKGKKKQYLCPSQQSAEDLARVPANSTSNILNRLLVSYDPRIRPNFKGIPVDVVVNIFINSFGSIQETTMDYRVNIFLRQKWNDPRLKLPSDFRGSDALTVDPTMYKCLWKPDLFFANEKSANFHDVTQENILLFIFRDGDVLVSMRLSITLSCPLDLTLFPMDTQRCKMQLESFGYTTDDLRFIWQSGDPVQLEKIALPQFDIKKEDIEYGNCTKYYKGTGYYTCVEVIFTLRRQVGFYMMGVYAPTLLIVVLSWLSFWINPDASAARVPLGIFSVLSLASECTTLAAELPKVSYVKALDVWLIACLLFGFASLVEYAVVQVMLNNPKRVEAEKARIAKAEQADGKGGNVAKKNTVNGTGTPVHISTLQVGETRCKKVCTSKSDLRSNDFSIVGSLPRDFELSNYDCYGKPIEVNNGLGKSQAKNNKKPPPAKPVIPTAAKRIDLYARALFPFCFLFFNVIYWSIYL
T5 sequence (P48167 23-497 Y274S, one chain of several): as the sequence (P48167 23-497, one chain of several) above, with Y252S counted along it
T3 sequence (P48167 23-497 A477P, one chain of several): as the sequence (P48167 23-497, one chain of several) above, with A455P counted along it
T6 sequence (P48167 23-497, one chain of several): as the sequence (P48167 23-497, one chain of several) above
T2 sequence (P48167 23-497 A477P, one chain of several): as the sequence (P48167 23-497, one chain of several) above, with A455P counted along it
T7 sequence (P48167 23-497 S343F, one chain of several): as the sequence (P48167 23-497, one chain of several) above, with S321F counted along it
T8 sequence (P48167 23-497 Y274S, one chain of several): as the sequence (P48167 23-497, one chain of several) above, with Y252S counted along it
T9 sequence (P48167 23-497 S343F, one chain of several): as the sequence (P48167 23-497, one chain of several) above, with S321F counted along it

picrotoxin
fold less effective on heteromeric αβ channels than on homomeric α subunit GlyRs [1]: 50–200 fold

C=C(C)[C@@H]1[C@H]2OC(=O)[C@@H]1[C@]1(O)C[C@H]3O[C@]34C(=O)O[C@H]2[C@]14C [picrotoxinin]
reduction in current amplitude of the original value (block of the glycine-gated response) (GlyR α1 homomers): 29.22%
picrotoxinin block (α1β^x channels): 0–19%
I 100 μM picrotoxinin + glycine/I 100 μM glycine (GlyR α1β^A455P; [6]): 86 ± 10%
Ipicrotoxinin + glycine/ Iglycine [2, 7]: 92 ± 17%
Ipicrotoxinin + glycine/ Iglycine [3, 7]: 72 ± 7%
I 100 μM picrotoxinin + glycine/I 100 μM glycine (GlyR α1β^Y252S; [6]): 99 ± 19%
I 100 μM picrotoxinin + glycine/I 100 μM glycine (GlyR α1β (wild-type); [6]): 90 ± 11%
I 100 μM picrotoxinin + glycine/I 100 μM glycine (GlyR α1β^S321F; [6]): 111 ± 15%
Ipicrotoxinin + glycine/ Iglycine [4, 7]: 84 ± 9%
Ipicrotoxinin + glycine/ Iglycine [5, 7]: 73 ± 4%

O=C1CN=C(c2ccccc2Cl)c2cc([N+](=O)[O-])ccc2N1 [clonazepam]
treatment of the hyperekplexia phenotype (hyperekplexia phenotype): effective treatment in many cases

NCC(=O)O [glycine]
Imax (GlyR α1β^A455P): 9.5 ± 1.2 nA
Imax [2]: 6.6 ± 1.1 nA
Imax [3]: 2.9 ± 1.0 nA
Imax (GlyR α1β^Y252S): 4.7 ± 0.6 nA
Imax (GlyR α1β (wild-type)): 4.1 ± 0.4 nA
Imax (GlyR α1β^S321F): 5.1 ± 0.7 nA
Imax [4]: 3.7 ± 0.9 nA
Imax [5]: 4.1 ± 0.7 nA
